According to patent US11060092B2, “Inhibitors of cytoplasmic histone deacetylase 4 complex for treating or preventing vascular or valve calcification” (TECHNION RESEARCH AND DEVELOPMENT FOUNDATION LTD., priority 2016, dated 2021):

Assays:
GFP-HDAC4 in VSMCs = test: GFP-HDAC4 cytoplasmic/nuclear localization in transfected VSMCs (CellProfiler scoring); format: cell-based, mouse; details: for cytoplasmic localization of HDAC4: VSMCs transfected with wild type GFP-HDAC4, vehicle 96.8%; for effect on HDAC4 location (nuclear accumulation / shuttling): VSMCs transfected with GFP-HDAC4
Experimental: (§1) Mouse aortic smooth muscle cells were purchased from ATCC (CRL-2797) and grown in DMEM supplemented with 10% FBS. 10 mmol/L beta-glycerophosphate (Sigma-Aldrich) and 0.2 mmol/L 2-Phospho-L-ascorbic acid (Sigma-Aldrich) were added to the growth media for 3-14 days to induce calcification (HPM). All cultured cells were maintained at 37° C. with 5% CO2.
Cell were transfected with pEGFP-HDAC4, pEGFP-HDAC4 3SA, pcDNA HDAC4-flag that were a gift from Tso-Pang Yao (Addgene plasmid #45636, #45637, #30485) [Cohen T. J. et al., The histone deacetylase HDAC4 connects neural activity to muscle transcriptional reprogramming. J Biol Chem 2007, 282, 33752-33759] or pEGFP-HDAC4 3-625 plasmid. Mouse ENIGMA (Pdlim7) or truncation mutants were cloned to pcDNA-3HA backbone plasmid. Transfections were performed using polyjet reagent (signaGen) according to manufacturer's instructions. Hdac4 siRNA (IDT), ENIGMA siRNA (GE Healthcare Life Sciences Dharmacon) LKB1 siRNA (IDT) and Sun2 siRNA (IDT) were transfected to the cells using Stemfect RNA Transfection Kit (Stemgent Inc.) according to manufacturer's instructions.
The pan-SIK, inhibitors: HG-9-91-01 (ApexBio #B1052), WH-4-023 (Sigma-Aldrich), MRT67307 (Sigma-Aldrich) and the pan-PKD and CamK inhibitors: CID-2011756 (Cayman #15317), KN-93 (Sigma-Aldrich K1285), were added to the HPM at final concentrations of 0.5, 1, 2, 5 and 10 μmol/L.
For localization and co-localization assays cell were transfected with pEGFP-HDAC4 plasmids, fixed with 4% formaldehyde in PBS, and blocked in 5% FBS in PBS. Staining for ENIGMA was done with overnight incubation of an antibody recognizing Pdlim7 (ProteinTech #10221-1-AP) in 2% FBS. Cy3-conjugated AffiniPure Donkey Anti-Rabbit IgG secondary antibody (Jackson ImmunoResearch) was used for detection. Nuclei were counterstained with DAPI 1 μg/ml. Cells were imaged using Zeiss Axio observer fluorescent microscope. Cytoplasmic and nuclear localization analysis was performed automatically on acquired images using CellProfiler cell image and analysis software [Carpenter A. E. et al., CellProfiler: image analysis software for identifying and quantifying cell phenotypes. Genome Biol 2006, 7, R100].

VSMCs [1] = test: O-cresolphthalein calcium colorimetric assay of VSMCs (matrix calcification); format: cell-based, mouse; details: VSMCs in HPM, 14 days, normalized to protein concentration
Experimental: as §1
After 14 days of growth cells were washed in PBS and incubated overnight in 0.6N HCl. HCl was collected and calcium content was measured using o-cresolphthalein Calcium colorimetric assay kit (Sigma-Aldrich) according to manufacture instructions. Calcium concentration was then normalized to cells protein concentration.

hepatocytes = details: cited from earlier work
aortic calcification = test: Vitamin D3 induced aortic calcification in ApoE-/- mice (Von Kossa, Alizarin red); format: in vivo, mouse; details: vitamin D3 overload, 5 mg/Kg/day IP then osmotic pump
Experimental: ApoE^−/− mice were purchased from The Jackson Laboratory. All animals were housed in a temperature-controlled environment with 12 hours light/dark cycles with food and water available ad libitum. Mice were aged 8 weeks when entering the study. Aortic calcification was induced via vitamin D3 overload as previously described [Idelevich A, Rais Y, Monsonego-Ornan E (2011) Bone Gla Protein Increases HIF-1-Dependent Glucose Metabolism and Induces Cartilage and Vascular Calcification. Arterioscler Thromb Vasc Biol 31: e55-e71]. 1α,25-Dihydroxyvitamin D3 (Sigma-Aldrich) was dissolved in 100% ethanol and diluted freshly. Mice received IP injections of 1α,25-Dihydroxyvitamin D3 for six consecutive days at a final concentration of 5 μg/Kg in 5% ethanol. SIK inhibition was achieved by daily administration of HG-9-91-01 (ApexBio #B1052) in DMSO at a final concentration of 5 mg/Kg/day. Littermate ApoE−/− mice were arbitrarily divided to receive treatment or control. In the first 4 days HG-9-91-01 was injected IP and on day 5 osmotic pumps (Alzet model 1002) were implanted. Animals were monitored daily and terminated for study at day 18. Specifically, mice were sacrificed in isoflurane and aortas were collected for histology. All mice procedures were performed in accordance with institutional guidelines. […]

aortic rings = test: Aortic rings assay in HPM (qRT-PCR of osteochondrogenic markers, Von Kossa stain); format: cell-based, mouse; details: aortic rings 14 days in HPM
Experimental: Aortas were either fresh frozen in OCT sliced into section with a cryostat or fixed in 4% formaldehyde, embedded in paraffin and cut into thin sections. Slides were stained to detect calcium depositions with Alizarin red or Von Kossa stains. Alizarin red: slides were incubated in 2% alizarin red (Sigma-Aldrich) for 5 minutes at room temperature, excess stain was washed in DDW. Von Kossa: slides were incubated for 20 minutes in 5% silver nitrate (Sigma-Aldrich), washed twice in DDW, immersed in 0.5% hydroquinone (Sigma-Aldrich) for 2 minutes followed by 2 minutes of 5% sodium thiosulfate (Alfa Aesar).
Aortic rings were prepared as described [Nature protocols, Use of the mouse aortic ring assay to study angiogenesis.—PubMed—NCBI, Last updated January 2012, Accessed on January 2012]. In brief, adult C57BL/6 mice were euthanized with isoflurane; thoracic aorta was dissected, cleaned under a microscope and cut into rings. […]
RNA was extracted from cultured cell using the NucleoSpin RNA kit (MACH EREY-NAGEL). […] Quantitative real-time PCR was performed with iTaq universal SYBR green supermix (Bio-Rad) using Bio-Rad CFX96 real time system. Previous study has shown that Actb was among the most stably expressed genes in differentiating osteoblasts [Stephens A. S, et al., Internal control genes for quantitative RT-PCR expression analysis in mouse osteoblasts, osteoclasts and macrophages. […]

VSMCs [2] = test: qRT-PCR of osteochondrogenic markers in VSMCs; format: cell-based, mouse; details: VSMCs grown 7 days in HPM, 1 μM vs DMSO
Experimental: as §1
RNA was extracted from cultured cell using the NucleoSpin RNA kit (MACH EREY-NAGEL). The RNeasy Fibrous Tissue mini and midi kits (Qiagen) were used to extract RNA from aortic rings and human tissue (respectively). All kits were used in accordance with manufacturer protocol. Reverse transcription was done using iScript reagent (Bio-Rad). Quantitative real-time PCR was performed with iTaq universal SYBR green supermix (Bio-Rad) using Bio-Rad CFX96 real time system. Previous study has shown that Actb was among the most stably expressed genes in differentiating osteoblasts [Stephens A. S, et al., Internal control genes for quantitative RT-PCR expression analysis in mouse osteoblasts, osteoclasts and macrophages. BMC Res Notes 2011, 4, 410], and therefore expression data were normalized to the expression of Actb. For each expression analysis we used at least two different experiments, at least four biological replicates, and two technical replicates for each biological replicates for each gene. We performed a standard curve for each primer pair. […]

bone mass = details: once daily treatment; cited from earlier work

For `O=C(Nc1ccc(CN2CCOCC2)cc1)c1ccc(-c2cccc(Cl)c2)o1` [CID 2011756], the “cytoplasmic localization of HDAC4” value (GFP-HDAC4 in VSMCs; 10 μmol/L) was 99.6% and the “effect on HDAC4 location (nuclear accumulation / shuttling)” value (GFP-HDAC4 in VSMCs) was “did not significantly affect the location of HDAC4”.
For `COc1ccc(N(C(=O)Nc2c(C)cccc2C)c2cc(Nc3ccc(N4CCN(C)CC4)cc3)ncn2)c(OC)c1` [HG-9-91-01], the “matrix calcification (matrix calcium)” value (VSMCs [1]) was “blunted”, the “cytoplasmic localization of HDAC4” value (GFP-HDAC4 in VSMCs; 0.5 μmol/L) was 97.4% and the “cytoplasmic localization of HDAC4” value (GFP-HDAC4 in VSMCs; 2 μmol/L) was 75.7%. The “cytoplasmic localization of HDAC4” value (GFP-HDAC4 in VSMCs; 10 μmol/L) was 14.4%, the “effect on HDAC4 location (nuclear accumulation / shuttling)” value (GFP-HDAC4 in VSMCs) was “induced nuclear import of HDAC4 in a dose dependent manner” and the “gluconeogenic gene expression and glucose production” value (hepatocytes) was “enhanced gluconeogenic gene expression and glucose production in hepatocytes”. For the same molecule, the “development of aortic medial calcifications” value (aortic calcification) was “markedly blunted the development of these calcifications”, the “matrix calcification (Von Kossa stain)” value (aortic rings) was “blunted” and the “upregulation of the osteochondrogenic genes” value (aortic rings; 1 μM vs DMSO) was “blunted”. The “upregulation of the osteochondrogenic genes” value (VSMCs [2]) was “blunted the upregulation of the osteochondrogenic genes”.
With `COc1ccc(S(=O)(=O)N(CCO)c2ccccc2CN(C)C/C=C/c2ccc(Cl)cc2)cc1` [KN-93] the “cytoplasmic localization of HDAC4” value (GFP-HDAC4 in VSMCs; 10 μmol/L) was 91.6% and the “effect on HDAC4 location (nuclear accumulation / shuttling)” value (GFP-HDAC4 in VSMCs) was “did not significantly affect the location of HDAC4”.
With `CCC(=C/[C@H](C)C/C=C/C(C)=C/[C@@H](C)C(=O)[C@@H](C)[C@H](O)[C@@H](C)C/C(C)=C/C(=O)O)/C=C/[C@@H]1OC(=O)C=C[C@@H]1C` [Leptomycin B, leptomycin B] the “effect on HDAC4 location (nuclear accumulation / shuttling)” value (GFP-HDAC4 in VSMCs) was “induced nuclear accumulation of GFP-HDAC4”.
In the case of `O=C(NCCCNc1nc(Nc2cccc(CN3CCOCC3)c2)ncc1C1CC1)C1CCC1` [MRT67307], the “effect on HDAC4 location (nuclear accumulation / shuttling)” value (GFP-HDAC4 in VSMCs) is reported as “induced the shuttling of HDAC4 to the nucleus”.
In the case of `COc1ccc(N(C(=O)Oc2c(C)cccc2C)c2ccnc(Nc3ccc(N4CCN(C)CC4)cc3)n2)c(OC)c1` [WH-4-023], the “effect on HDAC4 location (nuclear accumulation / shuttling)” value (GFP-HDAC4 in VSMCs) is reported as “induced the shuttling of HDAC4 to the nucleus”.
In the case of `COc1ccc(N2C(=O)N(c3c(C)cccc3Cl)Cc3cnc(Nc4ccc(C5CCN(C)CC5)cc4OC)nc32)nc1` [YKL-05-099], the “skeletal effects / bone mass” value (bone mass) is given as “mimic skeletal effects of PTH and increase bone mass”.
